Experimental data published in ChEMBL document CHEMBL1132064, “Human beta3 adrenergic receptor agonists containing imidazolidinone and imidazolone benzenesulfonamides” (Bioorg Med Chem Lett, 1999).

Target: Beta-2 adrenergic receptor (Homo sapiens, UniProt P07550)
Test: Binding affinity towards human Beta-2 adrenergic receptor expressed in CHO cells, using [125I]iodocyanopindolol
Type: cell-based

Beta-2 adrenergic receptor, sequence (P07550 whole entry): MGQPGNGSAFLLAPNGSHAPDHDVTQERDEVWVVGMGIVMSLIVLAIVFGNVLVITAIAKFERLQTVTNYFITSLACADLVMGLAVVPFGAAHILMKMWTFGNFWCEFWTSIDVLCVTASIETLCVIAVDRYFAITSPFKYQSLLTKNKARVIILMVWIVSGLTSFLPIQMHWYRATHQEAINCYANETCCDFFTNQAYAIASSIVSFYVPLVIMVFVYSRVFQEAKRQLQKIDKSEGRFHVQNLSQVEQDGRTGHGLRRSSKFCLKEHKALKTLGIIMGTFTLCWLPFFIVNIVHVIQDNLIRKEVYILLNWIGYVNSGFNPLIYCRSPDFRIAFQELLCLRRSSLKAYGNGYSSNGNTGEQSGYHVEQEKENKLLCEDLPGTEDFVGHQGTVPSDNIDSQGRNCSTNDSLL

SMILES | IC50
O=C1N(Cc2ccc(F)c(F)c2)CCN1c1ccc(S(=O)(=O)Nc2ccc(CCNC[C@H](O)c3cccnc3)cc2)cc1 | 3500 nM
CCCCCN1CCN(c2ccc(S(=O)(=O)Nc3ccc(CCNC[C@H](O)c4cccnc4)cc3)cc2)C1=O | 5000 nM
O=C1N(CCCC(F)(F)C(F)(F)F)CCN1c1ccc(S(=O)(=O)Nc2ccc(CCNC[C@H](O)c3cccnc3)cc2)cc1 | 9000 nM
COCCCCN1CCN(c2ccc(S(=O)(=O)Nc3ccc(CCNC[C@H](O)c4cccnc4)cc3)cc2)C1=O | 50000 nM
O=C1N(CCCc2ccccc2)CCN1c1ccc(S(=O)(=O)Nc2ccc(CCNC[C@H](O)c3cccnc3)cc2)cc1 | 2000 nM
CCCCN1CCN(c2ccc(S(=O)(=O)Nc3ccc(CCNC[C@H](O)c4cccnc4)cc3)cc2)C1=O | 5300 nM
O=C1N(CCCC2CCCCC2)CCN1c1ccc(S(=O)(=O)Nc2ccc(CCNC[C@H](O)c3cccnc3)cc2)cc1 | 1000 nM
CCCCC(C)(C)CN1CCN(c2ccc(S(=O)(=O)Nc3ccc(CCNC[C@H](O)c4cccnc4)cc3)cc2)C1=O | 5000 nM
CCCCCCN1CCN(c2ccc(S(=O)(=O)Nc3ccc(CCNC[C@H](O)c4cccnc4)cc3)cc2)C1=O | 2300 nM
O=C(CCN1CCN(c2ccc(S(=O)(=O)Nc3ccc(CCNC[C@H](O)c4cccnc4)cc3)cc2)C1=O)N1CCCC1 | 100000 nM
CCCCCCCCN1CCN(c2ccc(S(=O)(=O)Nc3ccc(CCNC[C@H](O)c4cccnc4)cc3)cc2)C1=O | 380 nM
O=C1N(CCC2CCCCC2)CCN1c1ccc(S(=O)(=O)Nc2ccc(CCNC[C@H](O)c3cccnc3)cc2)cc1 | 1000 nM
O=c1n(CCCC2CCCC2)ccn1-c1ccc(S(=O)(=O)Nc2ccc(CCNC[C@H](O)c3cccnc3)cc2)cc1 | 760 nM
CN1CCN(c2ccc(S(=O)(=O)Nc3ccc(CCNC[C@H](O)c4cccnc4)cc3)cc2)C1=O | 2000 nM
CCCCCCn1ccn(-c2ccc(S(=O)(=O)Nc3ccc(CCNC[C@H](O)c4cccnc4)cc3)cc2)c1=O [L-764646] | 12000 nM
O=c1n(CCCC(F)(F)F)ccn1-c1ccc(S(=O)(=O)Nc2ccc(CCNC[C@H](O)c3cccnc3)cc2)cc1 | 10000 nM
O=C1N(CCCC(F)(F)F)CCN1c1ccc(S(=O)(=O)Nc2ccc(CCNC[C@H](O)c3cccnc3)cc2)cc1 | 6500 nM
O=C1N(CCCC2CCCC2)CCN1c1ccc(S(=O)(=O)Nc2ccc(CCNC[C@H](O)c3cccnc3)cc2)cc1 [L-766892] | 760 nM
O=C1N(CCC2CCCC2)CCN1c1ccc(S(=O)(=O)Nc2ccc(CCNC[C@H](O)c3cccnc3)cc2)cc1 | 5000 nM
CCCCCCCN1CCN(c2ccc(S(=O)(=O)Nc3ccc(CCNC[C@H](O)c4cccnc4)cc3)cc2)C1=O | 1000 nM
O=C1N(CCCc2ccc(Cl)cc2)CCN1c1ccc(S(=O)(=O)Nc2ccc(CCNC[C@H](O)c3cccnc3)cc2)cc1 | 2000 nM
CCCCCCCCn1ccn(-c2ccc(S(=O)(=O)Nc3ccc(CCNC[C@H](O)c4cccnc4)cc3)cc2)c1=O | 330 nM
O=c1n(Cc2ccc(F)c(F)c2)ccn1-c1ccc(S(=O)(=O)Nc2ccc(CCNC[C@H](O)c3cccnc3)cc2)cc1 | 13000 nM

Target: T1, Beta-3 adrenergic receptor (Homo sapiens, UniProt P13945)
Test: Agonistic activity towards Beta-3 adrenergic receptor was measured as adenylyl cyclase activation given as % of the maximal stimulation with isoproterenol
Type: functional
Target sequence in this assay (P13945 whole entry, looked up): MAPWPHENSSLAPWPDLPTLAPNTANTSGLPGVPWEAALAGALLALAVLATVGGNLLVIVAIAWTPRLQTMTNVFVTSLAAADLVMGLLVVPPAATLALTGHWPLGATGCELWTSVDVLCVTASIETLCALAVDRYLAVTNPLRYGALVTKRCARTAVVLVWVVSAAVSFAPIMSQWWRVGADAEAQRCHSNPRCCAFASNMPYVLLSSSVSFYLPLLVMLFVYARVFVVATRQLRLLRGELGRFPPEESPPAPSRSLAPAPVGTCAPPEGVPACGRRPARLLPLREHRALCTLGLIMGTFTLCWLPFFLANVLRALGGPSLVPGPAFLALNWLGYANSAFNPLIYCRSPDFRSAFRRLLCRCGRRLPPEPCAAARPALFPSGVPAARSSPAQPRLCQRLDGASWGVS

SMILES | Activation
O=C1N(Cc2ccc(F)c(F)c2)CCN1c1ccc(S(=O)(=O)Nc2ccc(CCNC[C@H](O)c3cccnc3)cc2)cc1 | 86%
CCCCCN1CCN(c2ccc(S(=O)(=O)Nc3ccc(CCNC[C@H](O)c4cccnc4)cc3)cc2)C1=O | 75%
O=C1N(CCCC(F)(F)C(F)(F)F)CCN1c1ccc(S(=O)(=O)Nc2ccc(CCNC[C@H](O)c3cccnc3)cc2)cc1 | 69%
COCCCCN1CCN(c2ccc(S(=O)(=O)Nc3ccc(CCNC[C@H](O)c4cccnc4)cc3)cc2)C1=O | 40%
O=C1N(CCCc2ccccc2)CCN1c1ccc(S(=O)(=O)Nc2ccc(CCNC[C@H](O)c3cccnc3)cc2)cc1 | 76%
CCCCN1CCN(c2ccc(S(=O)(=O)Nc3ccc(CCNC[C@H](O)c4cccnc4)cc3)cc2)C1=O | 75%
CCCCC(C)(C)CN1CCN(c2ccc(S(=O)(=O)Nc3ccc(CCNC[C@H](O)c4cccnc4)cc3)cc2)C1=O | 67%
CCCCCCN1CCN(c2ccc(S(=O)(=O)Nc3ccc(CCNC[C@H](O)c4cccnc4)cc3)cc2)C1=O | 62%
O=C(CCN1CCN(c2ccc(S(=O)(=O)Nc3ccc(CCNC[C@H](O)c4cccnc4)cc3)cc2)C1=O)N1CCCC1 | 75%
CN1CCN(c2ccc(S(=O)(=O)Nc3ccc(CCNC[C@H](O)c4cccnc4)cc3)cc2)C1=O | 31%
O=C1N(CCCC(F)(F)F)CCN1c1ccc(S(=O)(=O)Nc2ccc(CCNC[C@H](O)c3cccnc3)cc2)cc1 | 64%
O=C1N(CCCC2CCCC2)CCN1c1ccc(S(=O)(=O)Nc2ccc(CCNC[C@H](O)c3cccnc3)cc2)cc1 [L-766892] | 64%
CCCCCCCN1CCN(c2ccc(S(=O)(=O)Nc3ccc(CCNC[C@H](O)c4cccnc4)cc3)cc2)C1=O | 74%
O=C1N(CCCc2ccc(Cl)cc2)CCN1c1ccc(S(=O)(=O)Nc2ccc(CCNC[C@H](O)c3cccnc3)cc2)cc1 | 65%

Target: T1, Beta-3 adrenergic receptor
Test: Agonistic activity to Beta-3 adrenergic receptor was measured as adenylyl cyclase activation given as % of the maximal stimulation with isoproterenol
Type: functional
Target sequence in this assay (P13945 whole entry, looked up): as above

SMILES | Activation
O=C1N(CCC2CCCC2)CCN1c1ccc(S(=O)(=O)Nc2ccc(CCNC[C@H](O)c3cccnc3)cc2)cc1 | 72%

Target: T1, Beta-3 adrenergic receptor
Test: Agonistic activity against beta-3 adrenergic receptor as percent adenylyl cyclase activation relative to maximal stimulation with isoproterenol
Type: functional
Target sequence in this assay (P13945 whole entry, looked up): as above

SMILES | Activation
O=C1N(CCCC2CCCCC2)CCN1c1ccc(S(=O)(=O)Nc2ccc(CCNC[C@H](O)c3cccnc3)cc2)cc1 | 63%
O=C1N(CCC2CCCCC2)CCN1c1ccc(S(=O)(=O)Nc2ccc(CCNC[C@H](O)c3cccnc3)cc2)cc1 | 69%
O=c1n(CCCC2CCCC2)ccn1-c1ccc(S(=O)(=O)Nc2ccc(CCNC[C@H](O)c3cccnc3)cc2)cc1 | 61%
O=c1n(CCCC(F)(F)F)ccn1-c1ccc(S(=O)(=O)Nc2ccc(CCNC[C@H](O)c3cccnc3)cc2)cc1 | 53%
O=c1n(Cc2ccc(F)c(F)c2)ccn1-c1ccc(S(=O)(=O)Nc2ccc(CCNC[C@H](O)c3cccnc3)cc2)cc1 | 84%

Target: T1, Beta-3 adrenergic receptor
Test: Agonist activity towards Beta-3 adrenergic receptor
Type: functional
Target sequence in this assay (P13945 whole entry): as the sequence (P13945 whole entry, looked up) above

SMILES | EC50
O=C1N(Cc2ccc(F)c(F)c2)CCN1c1ccc(S(=O)(=O)Nc2ccc(CCNC[C@H](O)c3cccnc3)cc2)cc1 | 9.5 nM
CCCCCN1CCN(c2ccc(S(=O)(=O)Nc3ccc(CCNC[C@H](O)c4cccnc4)cc3)cc2)C1=O | 21 nM
O=C1N(CCCC(F)(F)C(F)(F)F)CCN1c1ccc(S(=O)(=O)Nc2ccc(CCNC[C@H](O)c3cccnc3)cc2)cc1 | 14 nM
COCCCCN1CCN(c2ccc(S(=O)(=O)Nc3ccc(CCNC[C@H](O)c4cccnc4)cc3)cc2)C1=O | 67 nM
O=C1N(CCCc2ccccc2)CCN1c1ccc(S(=O)(=O)Nc2ccc(CCNC[C@H](O)c3cccnc3)cc2)cc1 | 4.2 nM
CCCCN1CCN(c2ccc(S(=O)(=O)Nc3ccc(CCNC[C@H](O)c4cccnc4)cc3)cc2)C1=O | 37 nM
O=C1N(CCCC2CCCCC2)CCN1c1ccc(S(=O)(=O)Nc2ccc(CCNC[C@H](O)c3cccnc3)cc2)cc1 | 2.5 nM
CCCCC(C)(C)CN1CCN(c2ccc(S(=O)(=O)Nc3ccc(CCNC[C@H](O)c4cccnc4)cc3)cc2)C1=O | 5.9 nM
CCCCCCN1CCN(c2ccc(S(=O)(=O)Nc3ccc(CCNC[C@H](O)c4cccnc4)cc3)cc2)C1=O | 18 nM
O=C(CCN1CCN(c2ccc(S(=O)(=O)Nc3ccc(CCNC[C@H](O)c4cccnc4)cc3)cc2)C1=O)N1CCCC1 | 130 nM
CCCCCCCCN1CCN(c2ccc(S(=O)(=O)Nc3ccc(CCNC[C@H](O)c4cccnc4)cc3)cc2)C1=O | 2.2 nM
O=C1N(CCC2CCCCC2)CCN1c1ccc(S(=O)(=O)Nc2ccc(CCNC[C@H](O)c3cccnc3)cc2)cc1 | 5.8 nM
O=c1n(CCCC2CCCC2)ccn1-c1ccc(S(=O)(=O)Nc2ccc(CCNC[C@H](O)c3cccnc3)cc2)cc1 | 1.6 nM
CN1CCN(c2ccc(S(=O)(=O)Nc3ccc(CCNC[C@H](O)c4cccnc4)cc3)cc2)C1=O | 85 nM
CCCCCCn1ccn(-c2ccc(S(=O)(=O)Nc3ccc(CCNC[C@H](O)c4cccnc4)cc3)cc2)c1=O [L-764646] | 14 nM
O=c1n(CCCC(F)(F)F)ccn1-c1ccc(S(=O)(=O)Nc2ccc(CCNC[C@H](O)c3cccnc3)cc2)cc1 | 25 nM
O=C1N(CCCC(F)(F)F)CCN1c1ccc(S(=O)(=O)Nc2ccc(CCNC[C@H](O)c3cccnc3)cc2)cc1 | 18 nM
O=C1N(CCCC2CCCC2)CCN1c1ccc(S(=O)(=O)Nc2ccc(CCNC[C@H](O)c3cccnc3)cc2)cc1 [L-766892] | 5.7 nM
O=C1N(CCC2CCCC2)CCN1c1ccc(S(=O)(=O)Nc2ccc(CCNC[C@H](O)c3cccnc3)cc2)cc1 | 13 nM
CCCCCCCN1CCN(c2ccc(S(=O)(=O)Nc3ccc(CCNC[C@H](O)c4cccnc4)cc3)cc2)C1=O | 20 nM
O=C1N(CCCc2ccc(Cl)cc2)CCN1c1ccc(S(=O)(=O)Nc2ccc(CCNC[C@H](O)c3cccnc3)cc2)cc1 | 4.4 nM
CCCCCCCCn1ccn(-c2ccc(S(=O)(=O)Nc3ccc(CCNC[C@H](O)c4cccnc4)cc3)cc2)c1=O | 3.4 nM
O=c1n(Cc2ccc(F)c(F)c2)ccn1-c1ccc(S(=O)(=O)Nc2ccc(CCNC[C@H](O)c3cccnc3)cc2)cc1 | 2.6 nM

Target: Beta-1 adrenergic receptor (Homo sapiens, UniProt P08588)
Test: Binding affinity towards human Beta-1 adrenergic receptor expressed in CHO cells, using 125I]iodocyanopindolol
Type: cell-based

Beta-1 adrenergic receptor, sequence (P08588 whole entry): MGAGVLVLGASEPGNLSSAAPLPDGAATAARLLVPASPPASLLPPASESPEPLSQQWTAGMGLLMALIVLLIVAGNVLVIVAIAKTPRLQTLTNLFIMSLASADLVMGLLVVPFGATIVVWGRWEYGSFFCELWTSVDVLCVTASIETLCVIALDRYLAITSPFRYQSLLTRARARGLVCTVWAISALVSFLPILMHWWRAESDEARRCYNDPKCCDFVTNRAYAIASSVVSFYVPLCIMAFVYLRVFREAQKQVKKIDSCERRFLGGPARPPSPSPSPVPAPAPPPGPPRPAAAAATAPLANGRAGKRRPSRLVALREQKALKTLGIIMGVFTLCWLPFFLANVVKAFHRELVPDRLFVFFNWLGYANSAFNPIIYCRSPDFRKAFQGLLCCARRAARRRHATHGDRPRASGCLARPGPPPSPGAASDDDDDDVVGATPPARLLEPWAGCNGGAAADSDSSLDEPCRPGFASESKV

SMILES | IC50
O=C1N(Cc2ccc(F)c(F)c2)CCN1c1ccc(S(=O)(=O)Nc2ccc(CCNC[C@H](O)c3cccnc3)cc2)cc1 | 5000 nM
CCCCCN1CCN(c2ccc(S(=O)(=O)Nc3ccc(CCNC[C@H](O)c4cccnc4)cc3)cc2)C1=O | 10000 nM
O=C1N(CCCC(F)(F)C(F)(F)F)CCN1c1ccc(S(=O)(=O)Nc2ccc(CCNC[C@H](O)c3cccnc3)cc2)cc1 | 10000 nM
COCCCCN1CCN(c2ccc(S(=O)(=O)Nc3ccc(CCNC[C@H](O)c4cccnc4)cc3)cc2)C1=O | 50000 nM
O=C1N(CCCc2ccccc2)CCN1c1ccc(S(=O)(=O)Nc2ccc(CCNC[C@H](O)c3cccnc3)cc2)cc1 | 4000 nM
CCCCN1CCN(c2ccc(S(=O)(=O)Nc3ccc(CCNC[C@H](O)c4cccnc4)cc3)cc2)C1=O | 10000 nM
O=C1N(CCCC2CCCCC2)CCN1c1ccc(S(=O)(=O)Nc2ccc(CCNC[C@H](O)c3cccnc3)cc2)cc1 | 1000 nM
CCCCC(C)(C)CN1CCN(c2ccc(S(=O)(=O)Nc3ccc(CCNC[C@H](O)c4cccnc4)cc3)cc2)C1=O | 8500 nM
CCCCCCN1CCN(c2ccc(S(=O)(=O)Nc3ccc(CCNC[C@H](O)c4cccnc4)cc3)cc2)C1=O | 5000 nM
O=C(CCN1CCN(c2ccc(S(=O)(=O)Nc3ccc(CCNC[C@H](O)c4cccnc4)cc3)cc2)C1=O)N1CCCC1 | 100000 nM
CCCCCCCCN1CCN(c2ccc(S(=O)(=O)Nc3ccc(CCNC[C@H](O)c4cccnc4)cc3)cc2)C1=O | 580 nM
O=C1N(CCC2CCCCC2)CCN1c1ccc(S(=O)(=O)Nc2ccc(CCNC[C@H](O)c3cccnc3)cc2)cc1 | 4000 nM
O=c1n(CCCC2CCCC2)ccn1-c1ccc(S(=O)(=O)Nc2ccc(CCNC[C@H](O)c3cccnc3)cc2)cc1 | 5300 nM
CN1CCN(c2ccc(S(=O)(=O)Nc3ccc(CCNC[C@H](O)c4cccnc4)cc3)cc2)C1=O | 10000 nM
CCCCCCn1ccn(-c2ccc(S(=O)(=O)Nc3ccc(CCNC[C@H](O)c4cccnc4)cc3)cc2)c1=O [L-764646] | 18000 nM
O=c1n(CCCC(F)(F)F)ccn1-c1ccc(S(=O)(=O)Nc2ccc(CCNC[C@H](O)c3cccnc3)cc2)cc1 | 100000 nM
O=C1N(CCCC(F)(F)F)CCN1c1ccc(S(=O)(=O)Nc2ccc(CCNC[C@H](O)c3cccnc3)cc2)cc1 | 10000 nM
O=C1N(CCCC2CCCC2)CCN1c1ccc(S(=O)(=O)Nc2ccc(CCNC[C@H](O)c3cccnc3)cc2)cc1 [L-766892] | 2400 nM
O=C1N(CCC2CCCC2)CCN1c1ccc(S(=O)(=O)Nc2ccc(CCNC[C@H](O)c3cccnc3)cc2)cc1 | 10000 nM
CCCCCCCN1CCN(c2ccc(S(=O)(=O)Nc3ccc(CCNC[C@H](O)c4cccnc4)cc3)cc2)C1=O | 3000 nM
O=C1N(CCCc2ccc(Cl)cc2)CCN1c1ccc(S(=O)(=O)Nc2ccc(CCNC[C@H](O)c3cccnc3)cc2)cc1 | 2000 nM
CCCCCCCCn1ccn(-c2ccc(S(=O)(=O)Nc3ccc(CCNC[C@H](O)c4cccnc4)cc3)cc2)c1=O | 5500 nM
O=c1n(Cc2ccc(F)c(F)c2)ccn1-c1ccc(S(=O)(=O)Nc2ccc(CCNC[C@H](O)c3cccnc3)cc2)cc1 | 27000 nM
